Target: T1, ERα (purified full-length human ERα) (Homo sapiens, UniProt P03372)
T1 sequence (P03372 1-595): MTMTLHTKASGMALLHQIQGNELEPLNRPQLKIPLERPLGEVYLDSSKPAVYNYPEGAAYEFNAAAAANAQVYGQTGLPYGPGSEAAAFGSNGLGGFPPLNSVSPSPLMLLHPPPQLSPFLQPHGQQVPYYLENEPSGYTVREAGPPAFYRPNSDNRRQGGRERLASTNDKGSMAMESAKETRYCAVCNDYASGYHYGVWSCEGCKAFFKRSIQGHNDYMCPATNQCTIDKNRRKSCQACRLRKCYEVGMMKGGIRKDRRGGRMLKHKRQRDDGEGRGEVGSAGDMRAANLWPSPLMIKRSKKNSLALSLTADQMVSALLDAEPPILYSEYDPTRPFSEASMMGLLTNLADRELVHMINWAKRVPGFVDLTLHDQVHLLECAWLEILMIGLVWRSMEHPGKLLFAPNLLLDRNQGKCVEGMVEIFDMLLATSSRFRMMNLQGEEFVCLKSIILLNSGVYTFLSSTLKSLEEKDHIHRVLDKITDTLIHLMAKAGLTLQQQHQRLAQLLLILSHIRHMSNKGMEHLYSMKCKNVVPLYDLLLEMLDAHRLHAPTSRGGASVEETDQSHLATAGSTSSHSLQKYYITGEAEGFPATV
Test: biochemical
Assay type: binding

## CCCCC(CC)COC(=O)c1ccccc1C(=O)OCC(CC)CCCC (stereo not shown) [DEHP]
  IC50: ~500 µM
